Source: patent US20230085307A1, “PYRIDAZINONE COMPOUND AND HERBICIDE” (NISSAN CHEMICAL CORPORATION, priority 2019, published 2023)

What was measured:
blackgrass [1] = experiment: Test Example 5: herbicidal effect by foliage application, plastic box (Table 20, symbol J); type: in vivo, blackgrass (Alopecurus myosuroides); conditions: foliage application, 320 g/ha, three weeks after application
How it was run: (§1)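 Sow seeds spot-wise in sterilized diluvial soil; cover with ~1.5 cm soil. Grow 14 days in greenhouse, 25° C. to 30° C. Spray foliage with emulsion diluted to predetermined amount. Rate effect after 3 weeks.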

late watergrass = experiment: Test Example 2: herbicidal activity, application during weed generation under submerged conditions (Table 17, symbol A); type: in vivo, late watergrass (Echinochloa oryzicola); conditions: AAH 320 g/ha; application during weed generation, submerged conditions
How it was run: (§2)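 Alluvial soil in Wagner pots was flooded to 4 cm depth and sown with the three weeds together; pots were kept in a greenhouse at 25° C. to 30° C. At the one to two leaf stage, an emulsion formulation diluted in water to a set rate went onto the water surface; scored three weeks later.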

rice flat sedge = experiment: Test Example 3: herbicidal effect by foliage application, Wagner pot (Table 18, symbol E); type: in vivo, rice flat sedge (Cyperus iria); conditions: 320 g/ha
How it was run: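 Plants were sown in alluvial soil held under 0.1–0.5 cm standing water and grown 14 days in a greenhouse at 25–30 °C. An emulsifiable formulation, water-diluted to the set dose, was then sprayed onto the foliage, and effects were scored three weeks later using previously defined criteria.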

barnyard grass = experiment: Test Example 5: herbicidal effect by foliage application, plastic box (Table 20, symbol H); type: in vivo, barnyard grass (Echinochloa crus-galli); conditions: foliage application, 320 g/ha, three weeks after application
How it was run: as §1

blackgrass [2] = experiment: Test Example 4: herbicidal effect by soil treatment (Table 19, symbol J); type: in vivo, blackgrass (Alopecurus myosuroides); conditions: amount of applied herbicide 320 g/ha
How it was run: (§3)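 Soil-surface application: an emulsion agent diluted with water to the predetermined dose is sprayed uniformly over seeds lying under roughly 1.5 cm of sterilized diluvial soil. Boxes stay in a greenhouse at 25° C. to 30° C. Three weeks later, each species is graded on previously defined criteria.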

redroot pigweed [3] = experiment: Test Example 4: herbicidal effect by soil treatment (Table 19, symbol N); type: in vivo, redroot pigweed (Amaranthus retroflexus); conditions: amount of applied herbicide 320 g/ha
How it was run: as §3

Japanese bulrush [4] = experiment: Test Example 1: herbicidal activity, application before weed generation under submerged conditions (Table 16, symbol B); type: in vivo, Japanese bulrush (Schoenoplectus juncoides); conditions: amount of applied herbicide 320 g/ha
How it was run: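 Alluvial soil was flooded to 4 cm depth, weed seeds were sown mixed and 2.5-leaf rice seedlings were transplanted. On sowing day, the compound's emulsion, diluted in water to a set dose, was applied to the water surface. Plants grew at 25–30 °C and were scored 0–5 after three weeks.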

oval-leafed pondweed = experiment: Test Example 2: herbicidal activity, application during weed generation under submerged conditions (Table 17, symbol C); type: in vivo, oval-leafed pondweed (Monochoria vaginalis); conditions: AAH 320 g/ha; application during weed generation, submerged conditions
How it was run: as §2

wild oat [5] = experiment: Test Example 5: herbicidal effect by foliage application, plastic box (Table 20, symbol I); type: in vivo, wild oat (Avena fatua); conditions: foliage application, 320 g/ha, three weeks after application
How it was run: as §1

southern crabgrass = experiment: Test Example 4: herbicidal effect by soil treatment (Table 19, symbol F); type: in vivo, southern crabgrass (Digitaria ciliaris); conditions: amount of applied herbicide 320 g/ha
How it was run: as §3

Japanese bulrush [6] = experiment: Test Example 2: herbicidal activity, application during weed generation under submerged conditions (Table 17, symbol B); type: in vivo, Japanese bulrush (Schoenoplectus juncoides); conditions: AAH 320 g/ha; application during weed generation, submerged conditions
How it was run: as §2

wild oat [7] = experiment: Test Example 4: herbicidal effect by soil treatment (Table 19, symbol I); type: in vivo, wild oat (Avena fatua); conditions: amount of applied herbicide 320 g/ha
How it was run: as §3

chickweed [8] = experiment: Test Example 4: herbicidal effect by soil treatment (Table 19, symbol P); type: in vivo, common chickweed (Stellaria media); conditions: amount of applied herbicide 320 g/ha
How it was run: as §3

chickweed [9] = experiment: Test Example 5: herbicidal effect by foliage application, plastic box (Table 20, symbol P); type: in vivo, common chickweed (Stellaria media); conditions: foliage application, 320 g/ha, three weeks after application
How it was run: as §1

redroot pigweed [10] = experiment: Test Example 5: herbicidal effect by foliage application, plastic box (Table 20, symbol N); type: in vivo, redroot pigweed (Amaranthus retroflexus); conditions: foliage application, 320 g/ha, three weeks after application
How it was run: as §1

green foxtail = experiment: Test Example 4: herbicidal effect by soil treatment (Table 19, symbol G); type: in vivo, green foxtail (Setaria viridis); conditions: amount of applied herbicide 320 g/ha
How it was run: as §3

velvetleaf = experiment: Test Example 4: herbicidal effect by soil treatment (Table 19, symbol M); type: in vivo, velvetleaf (Abutilon theophrasti); conditions: amount of applied herbicide 320 g/ha
How it was run: as §3

Row | Structure (SMILES) | J: blackgrass, herbicidal effect grade (blackgrass [1]) | herbicidal effect rating, A: late watergrass (late watergrass) | herbicidal effect on rice flat sedge (E) (rice flat sedge) | H: barnyard grass, herbicidal effect grade (barnyard grass) | J: blackgrass, herbicidal effect grade (blackgrass [2]) | N: redroot pigweed, herbicidal effect grade (redroot pigweed [3]) | Herbicidal effect, B: Japanese bulrush (Japanese bulrush [4]) | herbicidal effect rating, C: oval-leafed pondweed (oval-leafed pondweed) | I: wild oat, herbicidal effect grade (wild oat [5]) | F: southern crabgrass, herbicidal effect grade (southern crabgrass) | herbicidal effect rating, B: Japanese bulrush (Japanese bulrush [6]) | I: wild oat, herbicidal effect grade (wild oat [7]) | P: chickweed, herbicidal effect grade (chickweed [8]) | P: chickweed, herbicidal effect grade (chickweed [9]) | N: redroot pigweed, herbicidal effect grade (redroot pigweed [10]) | G: green foxtail, herbicidal effect grade (green foxtail) | M: velvetleaf, herbicidal effect grade (velvetleaf)
1 | COc1cc(F)ccc1-c1sc2cc(Cl)ccc2c1-c1c(O)c(C)nn(C)c1=O [3-043] | 5 (Herbicidal rate of 90% or more (almost completely withered)) | 3 (Herbicidal rate of 40% or more and less than 70%) | 5 (Herbicidal rate of 90% or more (almost completely withered)) | 4 (Herbicidal rate of 70% or more and less than 90%) | 3 (Herbicidal rate of 40% or more and less than 70%) | 4 (Herbicidal rate of 70% or more and less than 90%) | 1 (Herbicidal rate of 5% or more and less than 20%) | 0 (Herbicidal rate of 5% or less (almost no effect)) | 4 (Herbicidal rate of 70% or more and less than 90%) | 0 (Herbicidal rate of 5% or less (almost no effect)) | 0 (Herbicidal rate of 5% or less (almost no effect)) | 0 (Herbicidal rate of 5% or less (almost no effect)) | 4 (Herbicidal rate of 70% or more and less than 90%) | 5 (Herbicidal rate of 90% or more (almost completely withered)) | 2 (Herbicidal rate of 20% or more and less than 40%) | 4 (Herbicidal rate of 70% or more and less than 90%) | 3 (Herbicidal rate of 40% or more and less than 70%)
2 | CCOc1cc(F)ccc1-c1sc2cc(Cl)ccc2c1-c1c(O)c(C)nn(C)c1=O [3-045] | 4 (Herbicidal rate of 70% or more and less than 90%) | 2 (Herbicidal rate of 20% or more and less than 40%) | 5 (Herbicidal rate of 90% or more (almost completely withered)) | 5 (Herbicidal rate of 90% or more (almost completely withered)) | 3 (Herbicidal rate of 40% or more and less than 70%) | 3 (Herbicidal rate of 40% or more and less than 70%) | 1 (Herbicidal rate of 5% or more and less than 20%) | 0 (Herbicidal rate of 5% or less (almost no effect)) | 5 (Herbicidal rate of 90% or more (almost completely withered)) | 5 (Herbicidal rate of 90% or more (almost completely withered)) | 2 (Herbicidal rate of 20% or more and less than 40%) | 0 (Herbicidal rate of 5% or less (almost no effect)) | 4 (Herbicidal rate of 70% or more and less than 90%) | 5 (Herbicidal rate of 90% or more (almost completely withered)) | 4 (Herbicidal rate of 70% or more and less than 90%) | 4 (Herbicidal rate of 70% or more and less than 90%) | 2 (Herbicidal rate of 20% or more and less than 40%)
